Bridge positions count the residues as written; N and C are the ends. Ends that are not written are not given here.
Tests used:
lung cancer cells = assay: Trypan blue cell death assay, lung cancer cells; format: cell-based
Experimental: (§1) The hCG preparations, fractions of the early pregnancy urine and hCG APL™ SUPERDEX™ 200 fractionations (described herein), and certain β-hCG peptides were tested on prostate, lung, breast, and kidney cancer cells in vitro, and on prostate tumors in nude mice. […] The preparations fractions and peptides were also assayed using a clonogenic assay in which cells were seeded in methylcellulose in the presence or absence of test substance and then colonies were counted after a certain period of time. Cells were also examined for apoptosis by confocal microscopy.
The effects of hCG preparations, hCG fractions and β-hCG peptides were tested in lung cancer cells in vitro. Lung cancer cells were incubated with the hCG preparations, hCG fractions and β-hCG peptides in both the trypan blue viability assay and the clonogenic assay.

breast cancer cells = assay: Clonogenic assay, breast cancer cells; format: cell-based; details: 100 ug/ml
Experimental: as §1
The hCG preparation, hCG fractions and β-hCG peptides were also tested for the inhibition of breast cancer cell colony formation in the clonogenic assay.

HIV-1 transgenic mice = assay: Survival, growth and weight of HIV-1 transgenic mouse pups; format: in vivo
Experimental: The HIV-1 transgenic mice used for this study contain 7.4 kb of foreign DNA, including 5.1 kb of the HIV-1 proviral genome deleted in the gag and pol genes and 2.3 kb of vector (Dickie et al., 1991, Virology 185:109-119). […] In addition, these mice develop severe hyperkeratotic skin lesions with marked expression of gp 120 and nef genes (Kopp et al., 1993, AIDS Res. Hum. Retroviruses 9:267-275; Vasli et al., 1994, AIDS Res. Hum. Retroviruses 10:1241-1250).
Finally, certain fractions were tested for their ability to increase survival, promote weight gain and reduce HIV-1 gene expression in HIV-1 transgenic mice as described herein.
HIV-I transgenic pups administered hCG and hCG-related preparations for the first 5 days after birth through the mothers milk were monitored for survival at 10 days after birth.

KS Y-1 and KS-SLK cells = assay: Kaposi's Sarcoma clonogenic assay in cultured cells; format: cell-based, human; details: for inhibition of KS cell growth in clonogenic assays (in words): KS Y-1 and KS SLK
Outline: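 KS Y-1 or KS-SLK cells, 5×10^4 seeded in 0.8% methylcellulose, grown 10 days with or without hCG, β-hCG or β-hCG peptide preparations; well-formed colonies counted in triplicate wells.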

prostate cancer cells [1] = assay: Apoptosis by confocal microscopy, prostate cancer cells; format: cell-based; details: 48 hours
Experimental: The preparations fractions and peptides were also assayed using a clonogenic assay in which cells were seeded in methylcellulose in the presence or absence of test substance and then colonies were counted after a certain period of time. Cells were also examined for apoptosis by confocal microscopy. FIGS. 18A-H show confocal micrographs of prostate cancer cells treated with an hCG or hCG related preparation and then stained with FITC-labelled actin monoclonal antibody to visualize the cytoskeleton and propidium iodine to visualize the cell nucleus. Condensation of the nucleus and damage to the cytoskeleton are indications of apoptosis.

prostate cancer cells [2] = assay: Trypan blue cell death assay, prostate cancer cells; format: cell-based
Experimental: as §1
The effects of hCG preparations, hCG fractions and β-hCG peptides were tested in prostate cancer cells both in vitro and in vivo. Cells were incubated in either 10% fetal bovine serum (FBS) or 3% fetal bovine serum plus hCG preparations, hCG fractions and β-hCG peptides.

[3] = system: hematopoietic progenitor cells; assay: Hematopoietic progenitor clonogenic assays (CFU-GEMM, BFU-e, CFU-GM); format: cell-based, human
Outline: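 Normal bone marrow and cord blood progenitors (2×10^5 cells/ml) grown in methylcellulose with hCG preparations at 200 IU/ml or α/β-subunits and peptides at 100 μg/ml. Colonies (aggregates >50 cells) counted after 10 days of culture.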

[4] = listed as cyclized β-hCG peptide of amino acids 44-57

“4. Circ 44-57: β-hCG 44-57 with cysteine substituted at position 44, circularized via disulfide bond (SEQ ID NO:26) (CLQGVLPALPQVVC; disulfide 1-14 (inferred))” was tested, and the “% dead cells” value (lung cancer cells; 200 μg/ml) was 42%, the “% dead cells” value (lung cancer cells; 300 μg/ml) was 59% and the “inhibition of HIV-1 infection/replication in vitro (in words)” value (HIV-1) was “inhibit HIV-1 replication in vitro”. The “HIV in vitro Inhibition” value (HIV-1; inhibition of HIV-1 replication in vitro (HIV-1 strains and HIV-1 primary isolates)) was “+++ (“+++” represents greater than 70% effect)”, the “% inhibition (colony formation)” value (breast cancer cells) was 45% and the “weight gain / growth retardation and cachexia” value (HIV-1 transgenic mice; HIV-1 transgenic pups) was “higher weight gain than untreated mice”. For the same substance, the “survival at 10 days after birth” value (HIV-1 transgenic mice; administered first 5 days after birth through mothers milk) was “promote survival”, the “inhibition of KS cell growth in clonogenic assays (in words)” value (KS Y-1 and KS-SLK cells; listed as cyclic 44-57) was “strongest anti-tumor effects” and the “inhibition of KS cell growth in clonogenic assays (in words)” value (KS Y-1 and KS-SLK cells; [4]) was “inhibited KS cell growth”. For the same substance, the KS in vitro (KS Y-1 and KS-SLK cells; inhibition of Kaposi's Sarcoma cell growth in vitro in cultured cells) was “+++ (“+++” represents greater than 70% effect)”, the apoptosis (prostate cancer cells [1]) was “increased apoptosis” and the “percentage of cell death (trypan blue)” value (prostate cancer cells [2]; 3% FBS, 200 μg/ml) was 39%. For the same substance, the “percentage of cell death (trypan blue)” value (prostate cancer cells [2]; 3% FBS, 300 μg/ml) was 50%, the “percentage of cell death (trypan blue)” value (prostate cancer cells [2]; 10% FBS, 200 μg/ml) was 29% and the “percentage of cell death (trypan blue)” value (prostate cancer cells [2]; 10% FBS, 300 μg/ml) was 38%. The “promotion of hematopoiesis (in words)” value ([3]; listed as circularized 44-57) was “directly promoted”, the “promotion of hematopoiesis (in words)” value [3, 4] was “pro-hematopoietic activity” and the “Pro-hematopoiesis in vitro Enhancement” value ([3]; relative increase of hematopoietic colony cell number, hCG preparations 200 IU/ml, subunits and peptides 100 μg/ml) was “+++ (“+++” represents greater than 70% effect)”.
